Data taken from patent publication US10334847B2, “Antifungal composition” (The University of Sussex, priority 2014, dated 2019).

Assays:
[1] = system: Chalara fraxinea; experiment: Agar plate growth inhibition assay of fungicides against fungi (Chalara fraxinea); format: cell-based; conditions: Chalara fraxinea on YPG agar plates, 3-5 days at 30° C.; compounds used separately or in combination
Method: Example 1—Assays Used to Test Fungicides Against Fungi (e.g. Chalara fraxinea)
• 2% Yeast extract • 2% Peptone • 2% D-glucose • 2% agar YPG • 2% Yeast extract • 2% Peptone • 2% Glycerol • 2% agar Fungicide Formulations
Colletochlorin B was synthesised using the methodology described in WO 2013/160670 with reference to FIG. 7. Then, 1 μM of Colletochlorin B is separately combined with […] of each of the following fungicides to produce seven different formulations:— • 1) Metalaxyl—belongs to the phenylamide fungicide family (Sukul, P. and M. Spiteller (2000) “Metalaxyl: persistence, degradation, metabolism, and analytical methods.” Rev Environ Contam Toxicol 164: 1-26); • 2) Azoxystrobin—belongs to the strobilurin family; • 3) DMI (DeMethylation Inhibitor); • 4) CuPC33—A copper based compound; • 5) Boscalid; • 6) Difenconcozole; and • 7) Pyraclostrobin. Methods • 1. Yeast strains are streaked out and grown on YPD agar plates for 3 days at 30° C. • 2. 5 mL of YPD liquid media is inoculated with a fungal strain of interest (e.g. Chalara fraxinea) and grown for 3 days at 30° C. with shaking at 180 rpm. • 3. 1 μL inoculum of the fungal strain is added to 9999 μL YPG liquid media and gently mixed. • 4. […] The degree of inhibition of fungal/yeast growth caused by the inhibitors is then assessed. […]

[2] = system: S. cerevisiae; experiment: Agar plate growth inhibition assay against S. cerevisiae; format: cell-based; conditions: S. cerevisiae on YPG agar plates, 1 μM of each compound, alone or in combination, 3-5 days at 30° C.; FIG. 8
Method: The inventors tested the efficacy of a combination of Colletochlorin B and azoxystrobin on the growth of S. cerevisiae. As in Example 1, Colletochlorin B was synthesised using the methodology described in WO 2013/160670 with reference to FIG. 7.
• 1. S. cerevisiae was streaked out and grown up on YPD agar plates for 3 days at 30° C. • 2. 5 mL of YPG liquid media was inoculated with S. cerevisiae from the YPD plates and grown for 3 days at 30° C. with shaking at 180 rpm to produce a cell culture. • 3. Approximately 5×10^5 cells of the S. cerevisiae were then plated out onto YPG agar plates containing 1 μM Colletochlorin B, or 1 μM azoxystrobin, or a combination of 1 μM Colletochlorin and 1 μM azoxystrobin. • 4. The plates were incubated for 3-5 days at 30° C. • 5. The degree of inhibition of fungal/yeast growth caused by the inhibitors was then assessed.
For each plate, the yeast colony grown in the centre at the top was not grown in the presence of any inhibitor acting as a negative control. However, for the plate shown in FIG. 8A, the colony shown on the lower left was grown in the presence of only 1 μM Colletochlorin B, and for the plate shown in FIG. 8B, the colony shown on the lower left was grown in the presence of only 1 μM azoxystrobin. […]

[3] = system: microbial alternative oxidase (AOX); conditions: disclosed in WO 2013/160670; cited from earlier work
[4] = system: cytochrome bc1 complex; conditions: disclosed in WO 2013/160670; cited from earlier work

SMILES | degree of inhibition of fungal growth [1] | degree of inhibition of fungal/yeast growth [2] | inhibition of AOX [3] | inhibition of cytochrome bc1 complex [4]
CO/C=C(/C(=O)OC)c1ccccc1Oc1cc(Oc2ccccc2C#N)ncn1 [Azoxystrobin, reference compound] | partial growth inhibition | partial growth inhibition | – | –
CC(C)=CCC/C(C)=C/Cc1c(O)c(Cl)c(C)c(C=O)c1O [Colletochlorin B] | partial growth inhibition | partial growth inhibition | particularly effective inhibition | particularly effective inhibition
